According to ChEMBL document CHEMBL1150683, “Two new carbazole alkaloids from Murraya koenigii” (J Nat Prod, 2003):

Biological target: Cathepsin B (Homo sapiens, UniProt P07858)
Assay: Inhibition of cathepsin B mediated osteoporotic activity

- IC50: 2.11 µM
SMILES: COc1cc2c([nH]c3c4c(c(C)cc32)OC(C)(C)C=C4)c(-c2c(O)c(OC)cc3c2[nH]c2c4c(c(C)cc23)OC(C)(C)C=C4)c1O
